Measurements taken from ChEMBL document CHEMBL1154040, “Synthesis and evaluation of novel F-18 labeled fluoroarylvaline derivatives: potential PET imaging agents for tumor detection” (Bioorg Med Chem Lett, 2009).

What was measured:
[1] = tested on: Blood; assay: Biodistribution in S180 tumor-bearing KM mouse blood assessed per gram of tissue weight at 240 to 370 kBq, iv after 30 mins; type: ADME, organism-based; conditions: in vivo, 0.5 h
[2] = Ratio of drug level in S180 tumor to muscleKM mouse at 240 to 370 kBq, iv after 30 mins; type: ADME, organism-based, KM; conditions: in vivo, 0.5 h
[3] = tested on: Liver; assay: Biodistribution in S180 tumor-bearing KM mouse liver assessed per gram of tissue at 240 to 370 kBq, iv after 60 mins; type: ADME, organism-based; conditions: in vivo, 1 h
[4] = Ratio of drug level in S180 tumor to brain KM mouse at 240 to 370 kBq, iv after 5 mins; type: ADME, organism-based; conditions: in vivo
[5] = Ratio of drug level in S180 tumor to brain KM mouse at 240 to 370 kBq, iv after 15 mins; type: ADME, organism-based; conditions: in vivo, 0.25 h
[6] = tested on: Lung; assay: Biodistribution in S180 tumor-bearing KM mouse lung assessed per gram of tissue at 240 to 370 kBq, iv after 30 mins; type: ADME, organism-based; conditions: in vivo, 0.5 h
[7] = tested on: Muscle tissue; assay: Biodistribution in S180 tumor-bearing KM mouse muscle assessed per gram of tissue at 240 to 370 kBq, iv after 5 mins; type: ADME, organism-based; conditions: in vivo
[8] = Biodistribution in S180 tumor present in KM mouse assessed per gram of tissue at 240 to 370 kBq, iv after 15 mins; type: ADME, organism-based, Neoplasm; conditions: in vivo, 0.25 h
[9] = tested on: Spleen; assay: Biodistribution in S180 tumor-bearing KM mouse spleen assessed per gram of tissue at 240 to 370 kBq, iv after 60 mins; type: ADME, organism-based; conditions: in vivo, 1 h
[10] = Ratio of drug level in S180 tumor to muscleKM mouse at 240 to 370 kBq, iv after 120 mins; type: ADME, organism-based, KM; conditions: in vivo, 2 h
[11] = Ratio of drug level in S180 tumor to blood in KM mouse at 240 to 370 kBq, iv after 15mins; type: ADME, organism-based; conditions: tumour, 0.25 h
[12] = tested on: Spleen; assay: Biodistribution in S180 tumor-bearing KM mouse spleen assessed per gram of tissue at 240 to 370 kBq, iv after 5 mins; type: ADME, organism-based; conditions: in vivo
[13] = tested on: Liver; assay: Biodistribution in S180 tumor-bearing KM mouse liver assessed per gram of tissue weight at 240 to 370 kBq, iv after 5 mins; type: ADME, organism-based; conditions: in vivo
[14] = Ratio of drug level in S180 tumor to muscleKM mouse at 240 to 370 kBq, iv after 15 mins; type: ADME, organism-based, KM; conditions: in vivo, 0.25 h
[15] = Ratio of drug level in S180 tumor to blood in KM mouse at 240 to 370 kBq, iv after 120 mins; type: ADME, organism-based; conditions: tumour, 2 h
[16] = tested on: Kidney; assay: Biodistribution in S180 tumor-bearing KM mouse kidney assessed per gram of tissue at 240 to 370 kBq, iv after 30 mins; type: ADME, organism-based; conditions: in vivo, 0.5 h
[17] = tested on: Lung; assay: Biodistribution in S180 tumor-bearing KM mouse lung assessed per gram of tissue at 240 to 370 kBq, iv after 60 mins; type: ADME, organism-based; conditions: in vivo, 1 h
[18] = tested on: Heart; assay: Biodistribution in S180 tumor-bearing KM mouse heart assessed per gram of tissue weight at 240 to 370 kBq, iv after 15 mins; type: ADME, organism-based; conditions: in vivo, 0.25 h
[19] = tested on: Liver; assay: Biodistribution in S180 tumor-bearing KM mouse liver assessed per gram of tissue at 240 to 370 kBq, iv after 120 mins; type: ADME, organism-based; conditions: in vivo, 2 h
[20] = tested on: Brain; assay: Biodistribution in S180 tumor-bearing KM mouse brain assessed per gram of tissue at 240 to 370 kBq, iv after 120 mins; type: ADME, organism-based; conditions: in vivo, 2 h
[21] = Ratio of drug level in S180 tumor to blood in KM mouse at 240 to 370 kBq, iv after 60 mins; type: ADME, organism-based; conditions: tumour, 1 h
[22] = tested on: Liver; assay: Biodistribution in S180 tumor-bearing KM mouse liver assessed per gram of tissue at 240 to 370 kBq, iv after 30 mins; type: ADME, organism-based; conditions: in vivo, 0.5 h
[23] = tested on: Brain; assay: Biodistribution in S180 tumor-bearing KM mouse brain assessed per gram of tissue at 240 to 370 kBq, iv after 5 mins; type: ADME, organism-based; conditions: in vivo
[24] = tested on: Muscle tissue; assay: Biodistribution in S180 tumor-bearing KM mouse muscle assessed per gram of tissue at 240 to 370 kBq, iv after 30 mins; type: ADME, organism-based; conditions: in vivo, 0.5 h
[25] = tested on: Kidney; assay: Biodistribution in S180 tumor-bearing KM mouse kidney assessed per gram of tissue at 240 to 370 kBq, iv after 15 mins; type: ADME, organism-based; conditions: in vivo, 0.25 h
[26] = Biodistribution in S180 tumor present in KM mouse assessed per gram of tissue at 240 to 370 kBq, iv after 120 mins; type: ADME, organism-based, Neoplasm; conditions: in vivo, 2 h
[27] = Ratio of drug level in S180 tumor to muscleKM mouse at 240 to 370 kBq, iv after 5 mins; type: ADME, organism-based, KM; conditions: in vivo
[28] = tested on: Lung; assay: Biodistribution in S180 tumor-bearing KM mouse lung assessed per gram of tissue at 240 to 370 kBq, iv after 120 mins; type: ADME, organism-based; conditions: in vivo, 2 h
[29] = tested on: Muscle tissue; assay: Biodistribution in S180 tumor-bearing KM mouse muscle assessed per gram of tissue at 240 to 370 kBq, iv after 15 mins; type: ADME, organism-based; conditions: in vivo, 0.25 h
[30] = Ratio of drug level in S180 tumor to brain KM mouse at 240 to 370 kBq, iv after 60 mins; type: ADME, organism-based; conditions: in vivo, 1 h
[31] = Ratio of drug level in S180 tumor to blood in KM mouse at 240 to 370 kBq, iv after 5mins; type: ADME, organism-based; conditions: tumour
[32] = tested on: Heart; assay: Biodistribution in S180 tumor-bearing KM mouse heart assessed per gram of tissue weight at 240 to 370 kBq, iv after 30 mins; type: ADME, organism-based; conditions: in vivo, 0.5 h
[33] = tested on: Spleen; assay: Biodistribution in S180 tumor-bearing KM mouse spleen assessed per gram of tissue at 240 to 370 kBq, iv after 120 mins; type: ADME, organism-based; conditions: in vivo, 2 h
[34] = tested on: Blood; assay: Biodistribution in S180 tumor-bearing KM mouse blood assessed per gram of tissue weight at 240 to 370 kBq, iv after 120 mins; type: ADME, organism-based; conditions: in vivo, 2 h
[35] = tested on: Liver; assay: Biodistribution in S180 tumor-bearing KM mouse liver assessed per gram of tissue weight at 240 to 370 kBq, iv after 15 mins; type: ADME, organism-based; conditions: in vivo, 0.25 h
[36] = Biodistribution in S180 tumor present in KM mouse assessed per gram of tissue at 240 to 370 kBq, iv after 5 mins; type: ADME, organism-based, Neoplasm; conditions: in vivo
[37] = tested on: Kidney; assay: Biodistribution in S180 tumor-bearing KM mouse kidney assessed per gram of tissue at 240 to 370 kBq, iv after 60 mins; type: ADME, organism-based; conditions: in vivo, 1 h
[38] = tested on: Heart; assay: Biodistribution in S180 tumor-bearing KM mouse heart assessed per gram of tissue weight at 240 to 370 kBq, iv after 60 mins; type: ADME, organism-based; conditions: in vivo, 1 h
[39] = tested on: Muscle tissue; assay: Biodistribution in S180 tumor-bearing KM mouse muscle assessed per gram of tissue at 240 to 370 kBq, iv after 120 mins; type: ADME, organism-based; conditions: in vivo, 2 h
[40] = tested on: Blood; assay: Biodistribution in S180 tumor-bearing KM mouse blood assessed per gram of tissue weight at 240 to 370 kBq, iv after 60 mins; type: ADME, organism-based; conditions: in vivo, 1 h
[41] = tested on: Spleen; assay: Biodistribution in S180 tumor-bearing KM mouse spleen assessed per gram of tissue at 240 to 370 kBq, iv after 15 mins; type: ADME, organism-based; conditions: in vivo, 0.25 h
[42] = tested on: Lung; assay: Biodistribution in S180 tumor-bearing KM mouse lung assessed per gram of tissue at 240 to 370 kBq, iv after 5 mins; type: ADME, organism-based; conditions: in vivo
[43] = Ratio of drug level in S180 tumor to brain KM mouse at 240 to 370 kBq, iv after 30 mins; type: ADME, organism-based; conditions: in vivo, 0.5 h

Question: For CC(C)[C@H](NC(=O)c1ccc([N+](=O)[O-])cc1[18F])C(=O)O, which Drug uptake [1] is on record?
Answer: The Drug uptake was 0.24 %ID.

Question: And the tumor/muscle ratio [2]?
Answer: Its tumor/muscle ratio is 2.62.

Question: And the Drug uptake [3]?
Answer: The Drug uptake was 0.77 %ID.

Question: What about the tumor/brain ratio [4] of the same compound?
Answer: Its tumor/brain ratio is 9.38.

Question: What about the tumor/brain ratio [5] of the same compound?
Answer: The tumor/brain ratio was 10.4.

Question: What about the Drug uptake [6] of the same compound?
Answer: The Drug uptake was 1.38 %ID.

Question: And the Drug uptake [7]?
Answer: Its Drug uptake is 0.99 %ID.

Question: What about the Drug uptake [8] of the same compound?
Answer: The Drug uptake was 0.91 %ID.

Question: What about the Drug uptake [9] of the same compound?
Answer: The Drug uptake was 0.24 %ID.

Question: And the tumor/muscle ratio [10]?
Answer: The tumor/muscle ratio was 0.66.

Question: And the tumor/blood ratio [11]?
Answer: Its tumor/blood ratio is 0.72.

Question: And the Drug uptake [12]?
Answer: The Drug uptake was 1.04 %ID.

Question: What about the Drug uptake [13] of the same compound?
Answer: The Drug uptake was 6.54 %ID.

Question: What about the tumor/muscle ratio [14] of the same compound?
Answer: Its tumor/muscle ratio is 1.95.

Question: And the tumor/blood ratio [15]?
Answer: Its tumor/blood ratio is 1.3.

Question: What about the Drug uptake [16] of the same compound?
Answer: The Drug uptake was 1.36 %ID.

Question: What about the Drug uptake [17] of the same compound?
Answer: The Drug uptake was 1.14 %ID.

Question: What about the Drug uptake [18] of the same compound?
Answer: Its Drug uptake is 0.72 %ID.

Question: And the Drug uptake [19]?
Answer: Its Drug uptake is 0.5 %ID.

Question: And the Drug uptake [20]?
Answer: Its Drug uptake is 0.01 %ID.

Question: And the tumor/blood ratio [21]?
Answer: The tumor/blood ratio was 1.83.

Question: And the Drug uptake [22]?
Answer: Its Drug uptake is 1.59 %ID.

Question: What about the Drug uptake [23] of the same compound?
Answer: Its Drug uptake is 0.15 %ID.

Question: What about the Drug uptake [24] of the same compound?
Answer: Its Drug uptake is 0.21 %ID.

Question: What about the Drug uptake [25] of the same compound?
Answer: Its Drug uptake is 5.19 %ID.

Question: And the Drug uptake [26]?
Answer: The Drug uptake was 0.08 %ID.

Question: And the tumor/muscle ratio [27]?
Answer: The tumor/muscle ratio was 1.38.

Question: And the Drug uptake [28]?
Answer: The Drug uptake was 0.57 %ID.

Question: What about the Drug uptake [29] of the same compound?
Answer: Its Drug uptake is 0.47 %ID.

Question: And the tumor/brain ratio [30]?
Answer: Its tumor/brain ratio is 9.99.

Question: And the tumor/blood ratio [31]?
Answer: Its tumor/blood ratio is 0.56.

Question: What about the Drug uptake [32] of the same compound?
Answer: The Drug uptake was 0.29 %ID.

Question: What about the Drug uptake [33] of the same compound?
Answer: The Drug uptake was 0.16 %ID.

Question: And the Drug uptake [34]?
Answer: The Drug uptake was 0.06 %ID.

Question: What about the Drug uptake [35] of the same compound?
Answer: The Drug uptake was 3.35 %ID.

Question: What about the Drug uptake [36] of the same compound?
Answer: The Drug uptake was 1.37 %ID.

Question: What about the Drug uptake [37] of the same compound?
Answer: The Drug uptake was 0.45 %ID.

Question: And the Drug uptake [38]?
Answer: The Drug uptake was 0.11 %ID.

Question: And the Drug uptake [39]?
Answer: The Drug uptake was 0.12 %ID.

Question: What about the Drug uptake [40] of the same compound?
Answer: Its Drug uptake is 0.15 %ID.

Question: And the Drug uptake [41]?
Answer: The Drug uptake was 0.6 %ID.

Question: And the Drug uptake [42]?
Answer: The Drug uptake was 5.04 %ID.

Question: And the tumor/brain ratio [43]?
Answer: The tumor/brain ratio was 13.3.
